One may read the MIC as the smallest concentration in the dilution series that meets the test's criterion for growth inhibition.

Each structure is given as a SMILES string. Values after ≈ are worked out from the molar mass of the structure shown.

Common to all, as to format: functional
Test [1] relates to Klebsiella oxytoca. As to the kind of experiment: Antimicrobial activity against Klebsiella oxytoca KO279 harboring beta-lactamase OXY-1 by Etest method.
For test [2], the system named is Klebsiella oxytoca. As to the kind of experiment: Antimicrobial activity against Klebsiella oxytoca KO280 harboring beta-lactamase OXY-1 by Etest method.
Test [3] has as its system Klebsiella oxytoca. As to the kind of experiment: Antimicrobial activity against Klebsiella oxytoca KO281 harboring beta-lactamase OXY-1 and CMY-2 by Etest method.
Test [4] has as its system Klebsiella pneumoniae. Put plainly: Antimicrobial activity against Klebsiella pneumoniae 101A harboring beta-lactamase CMY-2 by Etest method.
Test [5] deals with Klebsiella pneumoniae. Put plainly: Antimicrobial activity against Klebsiella pneumoniae 278 harboring beta-lactamase OXY-1 by Etest method.
Test [6] has as its system Klebsiella pneumoniae. Put plainly: Antimicrobial activity against Klebsiella pneumoniae 278sp by Etest method.
The test system of test [7] is Escherichia coli. As to the kind of experiment: Antimicrobial activity against Escherichia coli TF-KO279 harboring beta-lactamase OXY-1 by Etest method.
Test [8] relates to Escherichia coli. As to the kind of experiment: Antimicrobial activity against Escherichia coli TF-KO281 harboring beta-lactamase OXY-1 by Etest method.
The test system of test [9] is Escherichia coli. Put plainly: Antimicrobial activity against Escherichia coli TF-KP278 harboring beta-lactamase OXY-1 by Etest method.
For test [10], the system named is Escherichia coli. Put plainly: Antimicrobial activity against Escherichia coli DH5alpha by Etest method. The note with it: DH5[alpha].

Consider `CO/N=C(\C(=O)N[C@@H]1C(=O)N2C(C(=O)O)=C(COC(C)=O)CS[C@H]12)c1csc(N)n1` [CEFOTAXIME], for which the MIC against Klebsiella oxytoca [1] came out at 1.5 µg/mL (≈ 3.29 µM); against Klebsiella oxytoca [2], 1.5 µg/mL (≈ 3.29 µM); with Klebsiella oxytoca [3], 16 µg/mL (≈ 35.1 µM); in the test with Klebsiella pneumoniae [4] it was 6 µg/mL (≈ 13.2 µM); in the test with Klebsiella pneumoniae [5], 1 µg/mL (≈ 2.2 µM); against Klebsiella pneumoniae [6] it was 0.047 µg/mL (≈ 0.103 µM). For the same compound, the MIC in the test with Escherichia coli [7] was determined as 0.25 µg/mL (≈ 0.549 µM); in the test on Escherichia coli [8] it was 0.38 µg/mL (≈ 0.834 µM); with Escherichia coli [9], 0.25 µg/mL (≈ 0.549 µM); against Escherichia coli [10], 0.023 µg/mL (≈ 0.0505 µM).
Consider `CC1(C)S[C@@H]2[C@H](NC(=O)[C@H](N)c3ccccc3)C(=O)N2[C@H]1C(=O)O` [AMPICILLIN], for which the minimum inhibitory concentration (MIC) is no less than 256 µg/mL with Klebsiella oxytoca [1]; no less than 256 µg/mL with Klebsiella oxytoca [2]; no less than 256 µg/mL against Klebsiella oxytoca [3]; no less than 256 µg/mL in the test with Klebsiella pneumoniae [4]; no less than 256 µg/mL against Klebsiella pneumoniae [5]; 96 µg/mL (≈ 275 µM) in the test with Klebsiella pneumoniae [6]. Moreover, the MIC in the test with Escherichia coli [7] was no less than 256 µg/mL; with Escherichia coli [8], no less than 256 µg/mL; with Escherichia coli [9] it was no less than 256 µg/mL; against Escherichia coli [10], 4 µg/mL (≈ 11.4 µM).
For `O=C(O)c1cn(C2CC2)c2cc(N3CCNCC3)c(F)cc2c1=O` [CIPROFLOXACIN], the MIC came to 0.38 µg/mL (≈ 1.15 µM) with Klebsiella oxytoca [1]; 0.25 µg/mL (≈ 0.754 µM) in the test with Klebsiella oxytoca [2]; 0.38 µg/mL (≈ 1.15 µM) against Klebsiella oxytoca [3]; 0.047 µg/mL (≈ 0.142 µM) against Klebsiella pneumoniae [4]; 0.38 µg/mL (≈ 1.15 µM) against Klebsiella pneumoniae [5]; 0.047 µg/mL (≈ 0.142 µM) against Klebsiella pneumoniae [6]. For the same compound, the MIC against Escherichia coli [10] came out at 0.032 µg/mL (≈ 0.0966 µM).
On to `CC(C)(O/N=C(\C(=O)N[C@@H]1C(=O)N2C(C(=O)[O-])=C(C[n+]3ccccc3)CS[C@H]12)c1csc(N)n1)C(=O)O` [CEFTAZIDIME], for which the MIC against Klebsiella oxytoca [1] was 4 µg/mL (≈ 7.32 µM); against Klebsiella oxytoca [2] it was 4 µg/mL (≈ 7.32 µM); with Klebsiella oxytoca [3], no less than 256 µg/mL; in the test with Klebsiella pneumoniae [4], 64 µg/mL (≈ 117 µM); in the test on Klebsiella pneumoniae [5] it was 1.5 µg/mL (≈ 2.74 µM); in the test on Klebsiella pneumoniae [6] it was 1 µg/mL (≈ 1.83 µM). The MIC against Escherichia coli [7] came to 0.75 µg/mL (≈ 1.37 µM); in the test with Escherichia coli [8] it was 1 µg/mL (≈ 1.83 µM); with Escherichia coli [9], 0.75 µg/mL (≈ 1.37 µM); in the test with Escherichia coli [10], 0.25 µg/mL (≈ 0.457 µM).
As to `CO/N=C(\C(=O)N[C@@H]1C(=O)N2C(C(=O)[O-])=C(C[N+]3(C)CCCC3)CS[C@H]12)c1csc(N)n1` [CEFEPIME], the MIC against Klebsiella oxytoca [1] stood at 1.5 µg/mL (≈ 3.12 µM); against Klebsiella oxytoca [2] it was 1.5 µg/mL (≈ 3.12 µM); in the test on Klebsiella oxytoca [3] it was 1.5 µg/mL (≈ 3.12 µM); with Klebsiella pneumoniae [4], 0.5 µg/mL (≈ 1.04 µM); with Klebsiella pneumoniae [5] it was 1 µg/mL (≈ 2.08 µM); with Klebsiella pneumoniae [6], 0.19 µg/mL (≈ 0.395 µM). The minimal inhibitory concentration (MIC) against Escherichia coli [8] is 0.38 µg/mL (≈ 0.791 µM); in the test on Escherichia coli [10], 0.032 µg/mL (≈ 0.0666 µM).
As to `C[C@@H](O)[C@H]1C(=O)N2C(C(=O)O)=C(SCCNC=N)C[C@H]12` [IMIPENEM ANHYDROUS], the MIC stood at 0.25 µg/mL (≈ 0.835 µM) against Klebsiella oxytoca [1]; 0.25 µg/mL (≈ 0.835 µM) against Klebsiella oxytoca [2]; 0.25 µg/mL (≈ 0.835 µM) in the test with Klebsiella oxytoca [3]; 0.38 µg/mL (≈ 1.27 µM) in the test with Klebsiella pneumoniae [4]; 0.25 µg/mL (≈ 0.835 µM) against Klebsiella pneumoniae [5]; 0.25 µg/mL (≈ 0.835 µM) with Klebsiella pneumoniae [6]. For the same compound, the MIC with Escherichia coli [7], against Escherichia coli [8], in the test with Escherichia coli [9] and in the test with Escherichia coli [10] was 0.19 µg/mL (≈ 0.635 µM) in each case.
In the case of `CO[C@@]1(NC(=O)Cc2cccs2)C(=O)N2C(C(=O)O)=C(COC(N)=O)CS[C@@H]21` [CEFOXITIN], the MIC was 3 µg/mL (≈ 7.02 µM) in the test with Klebsiella oxytoca [1]; 3 µg/mL (≈ 7.02 µM) against Klebsiella oxytoca [2]; no less than 256 µg/mL against Klebsiella oxytoca [3]; no less than 256 µg/mL in the test with Klebsiella pneumoniae [4]; 4 µg/mL (≈ 9.36 µM) in the test with Klebsiella pneumoniae [5]; 4 µg/mL (≈ 9.36 µM) in the test with Klebsiella pneumoniae [6]. In addition, the MIC in the test with Escherichia coli [7], against Escherichia coli [8], in the test on Escherichia coli [9] and in the test on Escherichia coli [10] was 2 µg/mL (≈ 4.68 µM) in each case.
As for `CCn1cc(C(=O)O)c(=O)c2cc(F)c(N3CCNCC3)cc21` [NORFLOXACIN], the MIC with Klebsiella oxytoca [1] amounted to 1.5 µg/mL (≈ 4.7 µM); with Klebsiella oxytoca [2], 1 µg/mL (≈ 3.13 µM); against Klebsiella oxytoca [3] it was 1.5 µg/mL (≈ 4.7 µM); against Klebsiella pneumoniae [4], 0.125 µg/mL (≈ 0.391 µM); against Klebsiella pneumoniae [5] it was 1 µg/mL (≈ 3.13 µM); with Klebsiella pneumoniae [6], 0.125 µg/mL (≈ 0.391 µM). Also, the minimal inhibitory concentration (MIC) came to 0.5 µg/mL (≈ 1.57 µM) with Escherichia coli [7], 0.5 µg/mL (≈ 1.57 µM) with Escherichia coli [8], 0.38 µg/mL (≈ 1.19 µM) in the test on Escherichia coli [9] and 0.094 µg/mL (≈ 0.294 µM) against Escherichia coli [10].
For `C[C@H]1[C@H](NC(=O)/C(=N\OC(C)(C)C(=O)O)c2csc(N)n2)C(=O)N1S(=O)(=O)O` [AZTREONAM], the MIC was no less than 256 µg/mL with Klebsiella oxytoca [1]; no less than 256 µg/mL against Klebsiella oxytoca [2]; no less than 256 µg/mL with Klebsiella oxytoca [3]; 6 µg/mL (≈ 13.8 µM) in the test with Klebsiella pneumoniae [4]; 32 µg/mL (≈ 73.5 µM) in the test on Klebsiella pneumoniae [5]; 0.064 µg/mL (≈ 0.147 µM) in the test with Klebsiella pneumoniae [6]. Also, the MIC against Escherichia coli [7] worked out at 64 µg/mL (≈ 147 µM); in the test on Escherichia coli [8], 128 µg/mL (≈ 294 µM); in the test with Escherichia coli [9] it was 64 µg/mL (≈ 147 µM); against Escherichia coli [10], 0.023 µg/mL (≈ 0.0528 µM).

The values above are taken from ChEMBL document CHEMBL1649490, “First detection of plasmid-encoded blaOXY beta-lactamase” (2009).
